Source: patent publication US10385065B2, “Antibacterial compounds” (priority 2014, dated 2019)
In brackets after ≈: the same amount, converted by molar mass. Like-named read-outs stand apart in the source and are kept apart here.

Tests used:
Type in all cases: cell-based
[1] = tested on: Haemophilus influenzae ATCC 49247; test: MIC, H. influenzae ATCC 49247; details: ATCC49247, Table 4
[2] = tested on: S. aureus NRS482 MRSA FQ resistant; test: MIC, S. aureus NRS482; details: Staphylococcus aureus; Table 2
[3] = tested on: S. aureus NRS127 MRSA LZD resistant; test: MIC, S. aureus NRS127; details: Staphylococcus aureus; Table 2
[4] = tested on: Staphylococcus aureus ATCC 29213; test: MIC, broth microdilution, S. aureus ATCC 29213
[5] = tested on: Escherichia coli ATCC 25922; test: MIC, broth microdilution, E. coli ATCC 25922; details: ATCC25922, Table 1, wild type strain
[6] = tested on: human hepatic cell line (HepG2 ATCC HB-8065); test: Human cell viability assay (CellTiter-Glo), HepG2; details: HepG2, 24 h incubation, tested over 1-128 μg/mL, read-out: IC50 values against HepG2
Method: Compounds are assessed for potential non-specific cytotoxic effects against a human hepatic cell line (HepG2 ATCC HB-8065). HepG2 cells are seeded at 20,000 cells/well in 96-well microtitre plates in minimal essential medium (MEM) supplemented with a final concentration of 10% FBS and 1 mM sodium pyruvate. After 24 h compound dilutions are prepared in Dulbecco's minimum essential media (DMEM) supplemented with final concentrations of 0.001% FBS, 0.3% bovine albumin and 0.02% HEPES and added to cells. Compounds are tested in two-fold serial dilutions over a final concentration range of 1-128 μg/mL in a final DMSO concentration of 1% vol/vol. Chlorpromazine is used as a positive control. Cells are incubated with compound at 37° C. and 5% CO2 for a further 24 h, after which time the CellTiter-Glo reagent (Promega) is added. Luminescence is measured on a BMG Omega plate reader. Data are analysed using GraphPad Prism software to determine the concentration of compound that inhibits cell viability by fifty percent (IC50).

[7] = tested on: Enterococcus faecium ATCC 19434; test: MIC, E. faecium ATCC 19434; details: ATCC19434, Table 2
[8] = tested on: S. aureus (MRSA) ATCC 43300; test: MIC, S. aureus ATCC 43300; details: Staphylococcus aureus; Table 2; read-out: MIC S. aureus (MRSA) ATCC 43300 Heterogeneous MRSA strain
[9] = tested on: S. aureus NRS1 MRSA; test: MIC, S. aureus NRS1; details: Staphylococcus aureus; Table 2; read-out: MIC S. aureus NRS1 MRSA AMG & TET resistant
[10] = ATCC29213, Table 1, wild type strain, read-out: MIC S. aureus ATCC 29213
[11] = ATCC 29213 / MSSA, Table 2, read-out: MIC S. aureus (MSSA) ATCC 29213 CLSI control strain

MIC [1] [µg/mL] | MIC [2] [µg/mL] | MIC [3] [µg/mL] | MIC [4, 10] [µg/mL] | MIC [4, 11] [µg/mL] | MIC [5] [µg/mL] | IC50 [6] [µg/mL] | MIC [7] [µg/mL] | MIC [8] [µg/mL] | MIC [9] [µg/mL] | Compound
1 to 10 (≈ 2.81 to 28.1 µM) | < 1 | < 1 | < 1 | < 1 | 10 to 100 (≈ 28.1 to 281 µM) | – | – | – | – | Cc1c(-c2ccc3[nH]cnc3c2)ccc2c3ocnc3c(=O)n(C3CC3)c12 [Compound 15, 7-(1H-benzimidazol-5-yl)-5-cyclopropyl-6-methyl-oxazolo[4,5-c]quinolin-4-one]
1 to 10 (≈ 2.56 to 25.6 µM) | – | – | < 1 | < 1 | 10 to 100 (≈ 25.6 to 256 µM) | > 100 | > 100 | – | – | Cc1nc2c(=O)n(C3CC3)c3c(C)c(-c4cc(F)c(C#N)cc4F)ccc3c2o1 [Compound 24]
1 to 10 (≈ 2.58 to 25.8 µM) | – | – | 10 to 100 (≈ 25.8 to 258 µM) | 1 to 10 (≈ 2.58 to 25.8 µM) | 10 to 100 (≈ 25.8 to 258 µM) | 10 to 100 (≈ 25.8 to 258 µM) | 10 to 100 (≈ 25.8 to 258 µM) | – | – | Cc1nc2c(=O)n(C3CC3)c3c(C)c(-c4ccc(C(C)(C)N)cc4)ccc3c2o1 [Compound 28, 7-[4-(2-aminopropan-2-yl)phenyl]-5-cyclopropyl-2,6-dimethyloxazolo[4,5-c]quinolin-4-one]
1 to 10 (≈ 3.12 to 31.2 µM) | – | – | 1 to 10 (≈ 3.12 to 31.2 µM) | 1 to 10 (≈ 3.12 to 31.2 µM) | 10 to 100 (≈ 31.2 to 312 µM) | > 100 | > 100 | – | – | Cc1nc2c(=O)n(C3CC3)c3c(C)c(-c4cn[nH]c4)ccc3c2o1 [Compound 29, 5-cyclopropyl-2,6-dimethyl-7-(1H-pyrazol-4-yl)oxazolo[4,5-c]quinolin-4-one]
> 100 | > 100 | – | > 100 | > 100 | > 100 | – | – | – | – | Cc1c(-c2ccc(C(=O)NCC(=O)O)cc2)ccc2c3ocnc3c(=O)n(C3CC3)c12 [Compound 31, 2-[{4-(5-cyclopropyl-6-methyl-4-oxo-oxazolo[4,5-c]quinolin-7-yl)benzoyl}amino]acetic acid]
10 to 100 (≈ 26.8 to 268 µM) | – | – | < 1 | < 1 | > 100 | 10 to 100 (≈ 26.8 to 268 µM) | > 100 | – | – | Cc1nc2c(=O)n(C3CC3)c3c(C)c(-c4ccc(C#N)cc4F)ccc3c2o1 [Compound 33, 4-(5-cyclopropyl-2,6-dimethyl-4-oxo-oxazolo[4,5-c]quinolin-7-yl)-3-fluoro-benzonitrile]
1 to 10 (≈ 2.52 to 25.2 µM) | – | – | < 1 | < 1 | 1 to 10 (≈ 2.52 to 25.2 µM) | > 100 | > 100 | – | – | Cc1nc2c(=O)n(C3CC3)c3c(C)c(-c4cc(F)c(CO)cc4F)ccc3c2o1 [Compound 34, 5-cyclopropyl-7-[2,5-difluoro-4-(hydroxymethyl)phenyl]-2,6-dimethyl-oxazolo[4,5-c]quinolin-4-one]
1 to 10 (≈ 2.44 to 24.4 µM) | 1 to 10 (≈ 2.44 to 24.4 µM) | – | < 1 | < 1 | 1 to 10 (≈ 2.44 to 24.4 µM) | 10 to 100 (≈ 24.4 to 244 µM) | 10 to 100 (≈ 24.4 to 244 µM) | < 1 | 1 to 10 (≈ 2.44 to 24.4 µM) | Cc1nc2c(=O)n(C3CC3)c3c(C)c(-c4cc(F)c(C(N)=O)cc4F)ccc3c2o1 [Compound 35, 4-(5-cyclopropyl-2,6-dimethyl-4-oxo-oxazolo[4,5-c]quinolin-7-yl)-2,5-difluoro-benzamide]
1 to 10 (≈ 3.02 to 30.2 µM) | – | – | < 1 | < 1 | 1 to 10 (≈ 3.02 to 30.2 µM) | > 100 | > 100 | – | – | Cc1c(-c2ccc(N)cc2)ccc2c3ocnc3c(=O)n(C3CC3)c12 [Compound 40, 7-(4-aminophenyl)-5-cyclopropyl-6-methyl-oxazolo[4,5-c]quinolin-4-one]
10 to 100 (≈ 27.7 to 277 µM) | – | – | 1 to 10 (≈ 2.77 to 27.7 µM) | 1 to 10 (≈ 2.77 to 27.7 µM) | > 100 | 10 to 100 (≈ 27.7 to 277 µM) | > 100 | – | – | Cc1c(-c2cnc(N(C)C)nc2)ccc2c3ocnc3c(=O)n(C3CC3)c12 [Compound 41, 5-cyclopropyl-7-[2-(dimethylamino)pyrimidin-5-yl]-6-methyl-oxazolo[4,5-c]quinolin-4-one]
> 100 | – | – | < 1 | < 1 | 1 to 10 (≈ 2.79 to 27.9 µM) | 10 to 100 (≈ 27.9 to 279 µM) | > 100 | – | – | Cc1c(-c2ccc3nonc3c2)ccc2c3ocnc3c(=O)n(C3CC3)c12 [Compound 46, 7-(2,1,3-benzoxadiazol-5-yl)-5-cyclopropyl-6-methyl-oxazolo[4,5-c]quinolin-4-one]
1 to 10 (≈ 2.37 to 23.7 µM) | – | – | 1 to 10 (≈ 2.37 to 23.7 µM) | 1 to 10 (≈ 2.37 to 23.7 µM) | 10 to 100 (≈ 23.7 to 237 µM) | 10 to 100 (≈ 23.7 to 237 µM) | > 100 | – | – | Cc1c(-c2ccc(NCc3ccccc3)nc2)ccc2c3ocnc3c(=O)n(C3CC3)c12 [Compound 48, 7-[6-(benzylamino)pyridin-3-yl]-5-cyclopropyl-6-methyl-oxazolo[4,5-c]quinolin-4-one]
10 to 100 (≈ 26 to 260 µM) | – | – | 1 to 10 (≈ 2.6 to 26 µM) | 1 to 10 (≈ 2.6 to 26 µM) | 1 to 10 (≈ 2.6 to 26 µM) | 10 to 100 (≈ 26 to 260 µM) | > 100 | – | – | Cc1nc2c(=O)n(C3CC3)c3cc(N4CC[C@@H](C(C)(C)N)C4)c(F)cc3c2o1 [Compound 50, 7-[(3R)-3-(2-aminopropan-2-yl)pyrrolidin-1-yl]-5-cyclopropyl-8-fluoro-2-methyl-oxazolo[4,5-c]quinolin-4-one]
1 to 10 (≈ 2.7 to 27 µM) | – | – | 1 to 10 (≈ 2.7 to 27 µM) | 1 to 10 (≈ 2.7 to 27 µM) | 10 to 100 (≈ 27 to 270 µM) | > 100 | > 100 | – | – | Cc1nc2c(=O)n(C3CC3)c3cc(N4CCC(C)(N)CC4)c(F)cc3c2o1 [Compound 55, 7-(4-amino-4-methylpiperidin-1-yl)-5-cyclopropyl-8-fluoro-2-methyl-oxazolo[4,5-c]quinolin-4-one]
1 to 10 (≈ 2.92 to 29.2 µM) | – | – | 1 to 10 (≈ 2.92 to 29.2 µM) | 1 to 10 (≈ 2.92 to 29.2 µM) | 1 to 10 (≈ 2.92 to 29.2 µM) | 10 to 100 (≈ 29.2 to 292 µM) | 10 to 100 (≈ 29.2 to 292 µM) | – | – | Cc1nc2c(=O)n(C3CC3)c3cc(N4CCC(N)C4)c(F)cc3c2o1 (centres unmarked) [Compound 56, 7-(3-aminopyrrolidin-1-yl)-5-cyclopropyl-8-fluoro-2-methyl-oxazolo[4,5-c]quinolin-4-one]
1 to 10 (≈ 2.75 to 27.5 µM) | – | – | 1 to 10 (≈ 2.75 to 27.5 µM) | 1 to 10 (≈ 2.75 to 27.5 µM) | 10 to 100 (≈ 27.5 to 275 µM) | 10 to 100 (≈ 27.5 to 275 µM) | > 100 | – | – | NC(=O)c1ccc(-c2cc3c(cc2F)c2ocnc2c(=O)n3C2CC2)cc1 [Compound 58, 4-(5-cyclopropyl-8-fluoro-4-oxo-oxazolo[4,5-c]quinolin-7-yl)benzamide]
< 1 | – | – | < 1 | < 1 | 10 to 100 (≈ 29.7 to 297 µM) | 10 to 100 (≈ 29.7 to 297 µM) | > 100 | – | – | O=c1c2ncoc2c2cc(F)c(-c3ccc(O)cc3)cc2n1C1CC1 [Compound 64, 5-cyclopropyl-8-fluoro-7-(4-hydroxyphenyl)oxazolo[4,5-c]quinolin-4-one]
< 1 | – | – | 1 to 10 (≈ 2.83 to 28.3 µM) | 1 to 10 (≈ 2.83 to 28.3 µM) | 1 to 10 (≈ 2.83 to 28.3 µM) | > 100 | 10 to 100 (≈ 28.3 to 283 µM) | – | – | Nc1ccc(-c2cc3c(cc2F)c2ocnc2c(=O)n3C2CC2)cc1F [Compound 71, 7-(4-amino-3-fluoro-phenyl)-5-cyclopropyl-8-fluoro-oxazolo[4,5-c]quinolin-4-one]
< 1 | – | – | < 1 | < 1 | 10 to 100 (≈ 26 to 260 µM) | 10 to 100 (≈ 26 to 260 µM) | > 100 | – | – | Cc1nc2c(=O)n(C3CC3)c3cc(-c4cc(F)c(N)cc4F)c(F)cc3c2o1 [Compound 79, 7-(4-amino-2,5-difluoro-phenyl)-5-cyclopropyl-8-fluoro-2-methyl-oxazolo[4,5-c]quinolin-4-one]
1 to 10 (≈ 2.91 to 29.1 µM) | – | – | 1 to 10 (≈ 2.91 to 29.1 µM) | 1 to 10 (≈ 2.91 to 29.1 µM) | 1 to 10 (≈ 2.91 to 29.1 µM) | > 100 | > 100 | – | – | NCC1CCN(c2nc3c(cc2F)c2ocnc2c(=O)n3C2CC2)C1 (centres unmarked) [Compound 81, 7-[3-(aminomethyl)pyrrolidin-1-yl]-5-cyclopropyl-8-fluoro-oxazolo[4,5-c][1,8]naphthyridin-4-one]
1 to 10 | < 1 | – | < 1 | < 1 | 1 to 10 | > 100 | – | – | – | CC(=O)OCc1nc2c(=O)n(C3CC3)c3c(C)c(-c4cc(F)c(N)cc4F)ccc3c2o1 [Compound 98, [7-(4-amino-2,5-difluorophenyl)-5-cyclopropyl-6-methyl-4-oxo-4H,5H-[1,3]oxazolo[4,5-c]quinolin-2-yl]methyl acetate]
1 to 10 (≈ 2.36 to 23.6 µM) | 1 to 10 (≈ 2.36 to 23.6 µM) | – | < 1 | < 1 | 10 to 100 (≈ 23.6 to 236 µM) | 10 to 100 (≈ 23.6 to 236 µM) | – | – | – | Cc1c(-c2cc(F)c(N)cc2F)ccc2c3oc(CN(C)C)nc3c(=O)n(C3CC3)c12 [Compound 101, 7-(4-amino-2,5-difluoro-phenyl)-5-cyclopropyl-2-[(dimethylamino)methyl]-6-methyl-oxazolo[4,5-c]quinolin-4-one]
